Source: patent publication US12515027B2, “Subcutaneous biodegradable reservoir device” (Research Triangle Institute, priority 2018, dated 2026)
Values after ≈ are worked out from the molar mass of the structure shown. Values joined by “and” are separate entries in the source; they are usually repeats but may differ in a detail not shown here. Identical values can stand only once. Counter-ions that a name gives are not always drawn. Values belong to the compound of their own block, whether it stands above or below them.

What was measured:
[1] = In vitro release from PCL reservoir implants in PBS pH 7.4 at 37 °C (UV-Vis); type: physicochemical; settings: for Daily RR: PCL 89 kDa
Procedure: The implants were incubated in 1×PBS (pH 7.4) at 37° C. Drug quantity released in media was measured via UV-Vis three times per week during which the implants were transferred to fresh buffer to maintain sink conditions. Drug concentrations were determined by correlating UV absorbance values to a standard curve. Standard curves involved measuring peak absorbance values as a function of drug concentrations diluted by half from bulk solutions. Peak absorbance values were determined by scanning the dilute drug solutions from 230 to 700 nm at a step size of 1 nm and assessing the maximum UV absorbance value.
Testing was performed to evaluate release kinetics of varying formulations of active agent and excipient. In particular, the release mechanism and release profiles for TAF formulated with varying mass quantities of castor oil from extruded PCL tubes was evaluated. Heat extruded PCL devices were fabricated (2.5 mm×40 mm) using 80 kDa Sigma grade PCL. […] For the in vitro release studies, devices were incubated in 40 mL of phosphate buffered saline (PBS) at pH 7.4 in a shaking incubator at 37° C. The implants were transferred to fresh buffer three times per week to maintain sink conditions.
Testing was performed to evaluate the in vitro release profile for an exemplary segmented device. In-vitro conditions included a simulated physiological media of a salt solution at pH between 6.5 and 7.5 at a temperature of 37° C. The exemplary device was engineered to release two APIs simultaneously, both at zero-order release kinetics. The device was fabricated with a segmented architecture that contained LNG formulated with ethyl oleate at a 1:4 ratio and EFdA formulated with castor oil at a 1:1 ratio and housed in separate compartments within a single implant design. Different segment lengths, polymer membrane thicknesses and polymer properties were tested.
In vitro release characterization involved incubation of the implants in 40 mL 1× phosphate buffered saline (PBS) (pH 7.4) at 37° C. and placed on an orbital shaker. […] The release buffer was sampled three times per week during which the devices were transferred to 40 mL of fresh buffer to maintain sink conditions. TAF quantity released in each PBS buffer during the time interval was calculated and cumulative mass of drug release as a function of time was determined.

[2] = Naltrexone excipient screen, rapid solubility assay; type: physicochemical
Procedure: Heat extruded polycaprolactone (PCL) tubes were fabricated (2.5 mm×40 mm) using 80 kDa PCL to produce devices with 70 μm and 100 μm wall thicknesses. […] In vitro release studies involved incubation of devices in 40 mL of phosphate buffered saline (PBS), pH 7.4 in a shaking incubator at 37° C. Implants were transferred to fresh buffer three times per week to maintain sink conditions. The concentration of drugs released in media over time was measured via UV-vis spectroscopy. Solubility, stability, and purity of APIs in excipient were evaluated via HPLC.

[3] = Evaluation of Elvitegravir for use in the device
Procedure: Elvitegravir, which is marketed by Gilead, was also evaluated.

[4] = In vivo study of one or two subcutaneous PC12 implants, 90 days (Example 20); parameters: species or system New Zealand white rabbits; settings: hormone in subcutaneous implant
Procedure: In vivo analysis was performed with 20 naïve New Zealand white rabbits. […] In particular, female NZW rabbits each received two subcutaneous implants bilaterally inserted into the subscapular region: (1) one implant that contained an ARV drug and (2) one implant that contained a hormonal contraceptive drug. Both implants remained in the subcutaneous space for 90 days. Blood samples were taken at 0, 1, 3, 7, […], 45, 60, 75, and 90 days. After 90 days, the animals were euthanized, and the implants were retrieved. Tissues were collected and analyzed for levels of ARVs (TFV, TAF, and TFV-DP). As a comparator for the dual insertion modality, each female NZW rabbit in a separate group received a single implant, where each implant contained a single drug formulation: either ARV or hormone. The implant remained in the subcutaneous space for 90 days. Blood samples were taken at 0, 1, 3, 7, 15, 30, 45, 60, 75, and 90 days. After 90 days, the animals were euthanized, and the implants were retrieved. Tissues were collected and analyzed for levels of ARVs (TFV, TAF, and TFV-DP). The polymer was PC12.

[5] = Chromatographic purity (stability) of formulation inside implant after in-vitro exposure (UPLC/UV); type: physicochemical
[6] = rhesus monkey, in vivo; cited from earlier work
physchem = settings: 37 °C, organic solvent or mixture, thermodynamic from solid, Solubility
Procedure: Over a 24-hour period, the solutions were mixed periodically and returned to the water bath. After approximately 72 hours, the solutions were removed from the water bath and appearance recorded for each of the saturated solutions. […] The supernatants were prepared for analysis by UPLC. Triplicate weighed aliquots were prepared from the collected supernatants and analyzed for assay using a UPLC/UV method. The analysis was performed using a Waters BEH C18 column (2.1 mm×50 mm, 1.7 μm) under gradient, reversed phase conditions with detection at 260 nm. The saturated solutions were quantitated by linear regression analysis against a 5-point calibration curve.
Testing using the same methodology was performed for EFdA, LNG, and ENG using various excipients.

[7] = Stability of Naltrexone base in excipients; type: physicochemical; settings: stability results
[8] = segmented implant: ENG:sesame oil 2:1 (10 mm, 200 μm) + TAF base:castor oil 2:1 (40 mm, 70 μm)
[9] = segmented implant: ENG:sesame oil 2:1 (10 mm, 200 μm) + TAF base:sesame oil 2:1 (40 mm, 70 μm)

SMILES: CC(C)OC(=O)[C@H](C)N[P@](=O)(CO[C@H](C)Cn1cnc2c(N)ncnc21)Oc1ccccc1 [TAF base]
Daily RR [1, 8]: 94.8 ± 17.6 µg/day
Daily RR [1, 9]: 57.9 ± 8.6 µg/day
Daily RR ([1]; segmented implant: LNG:sesame oil 2:1 (20 mm, 70 μm) + TAF base:castor oil 2:1 (30 mm, 70 μm)): 86.4 ± 10.3 µg/day
Daily RR ([1]; segmented implant: LNG:sesame oil 2:1 (20 mm, 70 μm) + TAF base:sesame oil 2:1 (30 mm, 70 μm)): 47.7 ± 6.7 µg/day

SMILES: O=C1CC[C@@]2(O)[C@H]3Cc4ccc(O)c5c4[C@@]2(CCN3CC2CC2)[C@H]1O5 [Naltrexone Salt, Naltrexone hydrochloride]
Sum of impurities (% total area) ([2]; API alone, no excipient (reference line), hydrochloride): 4.10%
Assay ([2]; in PEG600, hydrochloride): <0.1 mg/mL
Assay ([2]; in castor oil, hydrochloride): <0.1 mg/mL
Assay ([2]; in ethyl oleate, hydrochloride): No measurable solubility
Assay ([2]; in sesame oil, hydrochloride): No measurable solubility

aqueous solubility [3]: low
SMILES: COc1cc2c(cc1Cc1cccc(Cl)c1F)c(=O)c(C(=O)O)cn2[C@H](CO)C(C)C [Elvitegravir]

stability in vivo for 90 days [4]: 99.2%±0.1
stability within an exemplary implant ([5]; tested at 240 days in in-vitro conditions): greater than 92%
SMILES: C#C[C@]1(O)CC[C@H]2[C@@H]3CCC4=CC(=O)CC[C@@H]4[C@H]3CC[C@@]21CC [LNG, Levonorgestrel]

SMILES: CC(Cn1cnc2c(N)ncnc21)OCP(=O)(O)OP(=O)(O)OP(=O)(O)O (stereo in doubt) [TFV-DP, tenofovir diphosphate]
duration of sustained levels in PBMCs [6]: 83 days

stability in vivo for 90 days [4]: 99.5%
Release rate ([1]; 10 mm-long devices, 200 μm implants per b165 (second listing in Table 5)): ~30 µg/day
start of deviation from linear release ([1]; ENG 1:4 and 1:1 drug to excipient ratios, depletion of drug): ~50 days
duration of sustained release with zero-order kinetics ([1]; ENG 2:1 ratio with castor oil or sesame oil): approximately 300 days
sustained period of release at about 30 μg/day ([1]; exemplary device, in vitro conditions): up to 180 days
duration of linear release profile in vitro ([1]; exemplary formulations, summary statement): 230 days
Daily RR [1, 8]: 26.2 ± 7.1 µg/day
Daily RR [1, 9]: 26.3 ± 6.7 µg/day
duration of zero-order release from segmented implants ([1]; segmented implants of TAF with LNG or ENG): 50 days
% Purity at 180 Days ([5]; after 180-day in-vitro exposure, 200 μm implants per b165 (second listing in Table 5)): 99%
stability within an exemplary implant ([5]; tested at 180 days in in-vitro conditions): > 99%
SMILES: C#C[C@]1(O)CC[C@H]2[C@@H]3CCC4=CC(=O)CC[C@@H]4[C@H]3C(=C)C[C@@]21CC [ENG, Etonogestrel]

solubility at 72 h (physchem): 34.9 mg/mL (≈ 119 mM)
release rate for the glycerol device ([1]; 70 μm wall, FIG. 11C study): 30 μg of EFdA/day
release rate for the sesame oil device ([1]; 70 μm wall, FIG. 11C study): 8 μg of EFdA/day
duration of sustained linear release ([1]; EFdA castor oil devices, 70 μm, medical grade PCL): 1 year
exposure after which release deviated from zero-order ([1]; EFdA formulations other than castor oil): > 200 days
duration of zero-order kinetics ([1]; EFdA segment of segmented implant): 1 year
duration of sustained, zero order release ([1]; EFdA with varying excipients, 70 μm wall): over 60 days
duration of sustained zero-order release ([1]; EFdA-castor oil devices, 80 KDa PCL, 70 μm wall): 200 days
Release Rate (μg/day, 10 mm device) ([1]; EFdA:castor oil 1:1, 70 μm wall): 10 µg/day and 10.0 µg/day
Release Rate (μg/day, 10 mm device) ([1]; EFdA:ethyl oleate 1:1, 70 μm wall): 13.0 µg/day
Release Rate (μg/day, 10 mm device) ([1]; EFdA:glycerol 1:1, 70 μm wall): 15 µg/day and 15.0 µg/day
Release Rate (μg/day, 10 mm device) ([1]; EFdA:propylene glycol 1:1, 70 μm wall): 11.0 µg/day
Release Rate (μg/day, 10 mm device) ([1]; EFdA:sesame oil 1:1, 70 μm wall): 12.0 µg/day
duration of sustained linear release ([1]; exemplary EFdA formulations, summary statement): over 1 year
release profile / release rate ([1]; exemplary formulations/devices, summary statement): 5 to 30 µg/day
duration of zero-order release ([1]; segmented implant LNG/EFdA): 6 months
release rate of segment ([1]; segmented implant: LNG:ethyl oleate 1:4 and EFdA:castor oil 1:1, 70 μm wall, EFdA after burst of first 10 days): ~20 µg/day
% Purity at Day-365 ([5]; EFdA with castor oil): 99.3%
% Purity at Day-365 ([5]; EFdA with ethyl oleate): 99.4%
% Purity at Day-365 ([5]; EFdA with glycerol): 99.5%
% Purity at Day-365 ([5]; EFdA with propylene glycol): 99.5%
% Purity at Day-365 ([5]; EFdA with sesame oil): 99.3%
stability within an exemplary implant ([5]; after 1 year in in-vitro conditions): ~99%
purity after 1 year of exposure to in-vitro conditions ([5]; all EFdA implants, Day-365): > 99%
SMILES: C#C[C@]1(CO)O[C@@H](n2cnc3c(N)nc(F)nc32)C[C@@H]1O [EFdA]

SMILES: O=C1CC[C@@]2(O)[C@H]3Cc4ccc(O)c5c4[C@@]2(CCN3CC2CC2)[C@H]1O5 [Naltrexone Base, Naltrexone]
Sum of impurities (% total area) ([7]; with PEG600): 5.10%
Sum of impurities (% total area) ([7]; with castor oil): 5.20%
Sum of impurities (% total area) ([7]; with ethyl oleate): 9.90%
Sum of impurities (% total area) ([7]; with sesame oil): 6.40%
Sum of impurities (% total area) ([2]; API alone, no excipient (reference line)): 2.50%
Sum of impurities (% total area) ([2]; excipient screen, in PEG600): 2.10%
Sum of impurities (% total area) ([2]; excipient screen, in castor oil): 4.50%
Sum of impurities (% total area) ([2]; excipient screen, in ethyl oleate): 9.60%
Sum of impurities (% total area) ([2]; excipient screen, in sesame oil): 3.20%
Assay ([2]; in PEG600): 46.2 mg/mL
Assay ([2]; in castor oil): 9.63 mg/mL
Assay ([2]; in ethyl oleate): 2.79 mg/mL
Assay ([2]; in sesame oil): 4.62 mg/mL

SMILES: Nc1nc(=O)n([C@@H]2CS[C@H](COP(=O)(O)OP(=O)(O)OP(=O)(O)O)O2)cc1F [FTC-TP, FTC-triphosphate]
duration of sustained levels in PBMCs [6]: 28 days
